In one assay the target is human orexin-2 receptor (Homo sapiens (Human), UniProt O43614). Nature of the assay: FLIPR Ca2+ Flux Assay, orexin-2 receptor. The class given is cell-based. As to conditions: CHO cells expressing the human orexin-2 receptor; agonist 70 pM Ala-6,12 orexin-A; read-out: hOX2R FLIPR IC50. As to the method: In a typical experiment the OX1 and OX2 receptor antagonistic activity of the compounds of the present invention was determined in accordance with the following experimental method. For intracellular calcium measurements, Chinese hamster ovary (CHO) cells expressing the rat orexin-1 receptor or the human orexin-2 receptor, are grown in Iscove's modified DMEM containing 2 mM L-glutamine, […], 1% hypoxanthine-thymidine supplement, 100 U/ml penicillin, 100 μg/ml streptomycin and 10% heat-inactivated fetal calf serum (FCS). The cells are seeded at 20,000 cells/well into Becton-Dickinson black 384-well clear bottom sterile plates coated with poly-D-lysine. All reagents were from GIBCO-Invitrogen Corp. The seeded plates are incubated overnight at 37° C. and 5% CO2. Ala-6,12 human orexin-A as the agonist is prepared as a 1 mM stock solution in 1% bovine serum albumin (BSA) and diluted in assay buffer (HBSS containing 20 mM HEPES, 0.1% BSA and 2.5 mM probenecid, pH7.4) for use in the assay at a final concentration of 70 pM. Test compounds are prepared as 10 mM stock solution in DMSO, then diluted in 384-well plates, first in DMSO, then assay buffer. On the day of the assay, cells are washed 3 times with 100 μl assay buffer and then incubated for 60 min (37° C., 5% CO2) in 60 μl assay buffer containing 1 μM Fluo-4 AM ester, 0.02% pluronic acid, and 1% BSA. The dye loading solution is then aspirated and cells are washed 3 times with 100 μl assay buffer. 30 μl of that same buffer is left in each well. Within the Fluorescent Imaging Plate Reader (FLIPR, Molecular Devices), test compounds are added to the plate in a volume of 25 μl, incubated for 5 min and finally 25 μl of agonist is added. Fluorescence is measured for each well at 1 second intervals for 5 minutes and the height of each fluorescence peak is compared to the height of the fluorescence peak induced by 70 pM Ala-6,12 orexin-A with buffer in place of antagonist. […] Alternatively, compound potency can be assessed by a radioligand binding assay (described in Bergman et. al. Bioorg. Med. Chem. Lett. 2008, 18, 1425-1430) in which the inhibition constant (Ki) is determined in membranes prepared from CHO cells expressing either the OX1 or OX2 receptor. The intrinsic orexin receptor antagonist activity of a compound which may be used in the present invention may be determined by these assays.
Chain of human orexin-2 receptor (O43614 whole entry): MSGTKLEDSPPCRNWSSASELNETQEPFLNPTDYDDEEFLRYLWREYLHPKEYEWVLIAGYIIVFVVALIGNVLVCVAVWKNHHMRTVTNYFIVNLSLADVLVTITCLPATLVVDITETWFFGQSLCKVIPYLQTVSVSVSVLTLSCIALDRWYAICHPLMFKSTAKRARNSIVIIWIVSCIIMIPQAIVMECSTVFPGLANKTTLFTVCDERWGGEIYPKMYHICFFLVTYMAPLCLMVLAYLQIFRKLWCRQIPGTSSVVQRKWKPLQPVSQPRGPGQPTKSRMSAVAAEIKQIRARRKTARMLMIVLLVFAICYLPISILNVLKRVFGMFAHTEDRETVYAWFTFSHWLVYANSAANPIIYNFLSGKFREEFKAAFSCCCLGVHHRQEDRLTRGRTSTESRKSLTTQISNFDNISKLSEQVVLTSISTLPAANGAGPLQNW
For orientation: A change in cytosolic calcium serves as a functional read-out for many receptors and channels.

The target of another assay is hOX1R (Homo sapiens, UniProt O43613). Nature of the assay: FLIPR Ca2+ Flux Assay, orexin-1 receptor. It counts as cell-based. As to conditions: CHO cells expressing orexin-1 receptor; agonist 70 pM Ala-6,12 orexin-A.

IC50 data for 25 molecules are collected here from patent US10239838B2, “Heteroaryl orexin receptor antagonists” (Merck Sharp & Dohme Corp., priority 2014, dated 2019).

A value given as a limit tells only on which side of the number the result lay.

Turning to `CCOc1ccccc1C(=O)N(CC)CCc1cccc(C(C)(C)O)n1` [Example 11, 2-ethoxy-N-ethyl-N-{2-[6-(1-hydroxy-1-methylethyl)pyridin-2-yl]ethyl}benzamide], the IC50 (as a rule, the point on the concentration scale where inhibition reaches its midpoint) at human orexin-2 receptor was 76 nM; at hOX1R, above 10000 nM.

For the molecule `CCN(CCc1cccc(C(C)(C)O)n1)C(=O)c1ccccc1C1CC1` [Example 15, 2-cyclopropyl-N-ethyl-N-{2-[6-(1-hydroxy-1-methylethyl)pyridin-2-yl]ethyl}benzamide], the IC50 is 43 nM at human orexin-2 receptor and above 10000 nM on hOX1R.

Turning to `CCN(CCc1cccc(C(C)(C)O)n1)C(=O)c1cccnc1OC(C)C` [Example 5, N-Ethyl-N-{2-[6-(1-hydroxy-1-methylethyl)pyridin-2-yl]ethyl}-2-(1-methylethoxy)pyridine-3-carboxamide], the 50% inhibitory concentration (IC50) on human orexin-2 receptor is 133 nM; on hOX1R, above 10000 nM.

With `CCN(CCc1cncc(C(C)(C)O)n1)C(=O)c1ccccc1-n1nccn1` [Example 39, N-Ethyl-N-{2-[6-(1-hydroxy-1-methylethyl)pyrazin-2-yl]ethyl}-2-(2H-1,2,3-triazol-2-yl)benzamide], the figures for the concentration for half-maximal inhibition (IC50) at human orexin-2 receptor and on hOX1R were 68 nM and above 10000 nM, respectively.

Regarding `CCN(CCc1ccc(C(C)(C)O)cn1)C(=O)c1cccnc1OCC(F)(F)F` [Example 56, N-ethyl-N-{2-[5-(1-hydroxy-1-methylethyl)pyridin-2-yl]ethyl}-2-(2,2,2-trifluoroethoxy)pyridine-3-carboxamide], the results for the IC50 at human orexin-2 receptor and at hOX1R were 430 nM and above 10000 nM, respectively.

Turning to `CCN(CCc1ccc(C(C)(C)O)cn1)C(=O)c1ccccc1-n1ncnn1` [Example 55, N-ethyl-N-{2-[5-(1-hydroxy-1-methylethyl)pyridin-2-yl]ethyl}-2-(2H-tetrazol-2-yl)benzamide], the values for the IC50 at human orexin-2 receptor and on hOX1R were 388 nM and above 10000 nM, respectively.

As for `CCN(CCc1ccc(C(C)(C)O)cn1)C(=O)c1ccccc1-n1cccn1` [Example 53, N-ethyl-N-{2-[5-(1-hydroxy-1-methylethyl)pyridin-2-yl]ethyl}-2-(1H-pyrazol-1-yl)benzamide], the IC50 is 183 nM at human orexin-2 receptor and above 10000 nM on hOX1R.

Turning to `CCN(CCc1ccc(C)c(C(C)(C)O)n1)C(=O)c1ccccc1-n1nccn1` [Example 48, N-Ethyl-N-(2-(6-(2-hydroxypropan-2-yl)-5-methylpyridin-2-yl)ethyl)-2-(2H-1,2,3-triazol-2-yl)benzamide], the IC50 on human orexin-2 receptor is 6 nM; at hOX1R it was 791 nM.

Regarding `CCN(CCc1cccc(C(C)(C)O)n1)C(=O)c1ccccc1OC(F)(F)F` [Example 8, N-ethyl-N-{2-[6-(1-hydroxy-1-methylethyl)pyridin-2-yl]ethyl}-2-(trifluoromethoxy)benzamide], the IC50 at human orexin-2 receptor was 32 nM; on hOX1R, above 10000 nM.

For the molecule `CCN(CCc1cccc(C(C)(C)O)n1)C(=O)c1cccnc1-c1ccccc1` [Example 14, N-ethyl-N-{2-[6-(1-hydroxy-1-methylethyl)pyridin-2-yl]ethyl}-2-phenylpyridine-3-carboxamide], the results for the concentration for half-maximal inhibition (IC50) on human orexin-2 receptor and at hOX1R were 103 nM and above 10000 nM, respectively.

Regarding `CCN(CCc1cccc(C(C)(C)O)n1)C(=O)c1ccccc1OCC(F)(F)F` [Example 17, N-ethyl-N-(2-(6-(2-hydroxypropan-2-yl)pyridin-2-yl)ethyl)-2-(2,2,2-trifluoroethoxy)benzamide], the results for the IC50 on human orexin-2 receptor and at hOX1R were 261 nM and above 10000 nM, respectively.

As to `CCN(CCc1ccnc(C(C)(C)O)c1)C(=O)c1ccccc1-n1nccn1` [Example 37, N-Ethyl-N-{2-[2-(1-hydroxy-1-methylethyl)pyridin-4-yl]ethyl}-2-(2H-1,2,3-triazol-2-yl)benzamide], the values for the IC50 on human orexin-2 receptor and on hOX1R were 124 nM and above 10000 nM, respectively.

With `CCN(CCc1cccc(C(C)(C)O)n1)C(=O)c1ccc(F)cc1-n1nccn1` [Example 13, N-ethyl-4-fluoro-N-{2-[6-(1-hydroxy-1-methylethyl)pyridin-2-yl]ethyl}-2-(2H-1,2,3-triazol-2-yl)benzamide], the values for the IC50 at human orexin-2 receptor and on hOX1R were 8 nM and above 10000 nM, respectively.

As to `CCN(CCc1cc(C)c(C(C)(C)O)cn1)C(=O)c1ccccc1-n1nccn1` [Example 47, N-Ethyl-N-(2-(5-(2-hydroxypropan-2-yl)-4-methylpyridin-2-yl)ethyl)-2-(2H-1,2,3-triazol-2-yl)benzamide], the figures for the IC50 on human orexin-2 receptor and on hOX1R were 16 nM and 1560 nM, respectively.

Consider `CCN(CCc1ccc(C(C)(C)O)cn1)C(=O)c1ccccc1C1CC1(F)F` (centres unmarked) [Example 63, 2-(2,2-difluorocyclopropyl)-N-ethyl-N-{2-[5-(1-hydroxy-1-methylethyl)pyridin-2-yl]ethyl}benzamide], for which the IC50 on human orexin-2 receptor was 38 nM; on hOX1R, above 10000 nM.

As to `CCN(CCc1cccc(C(C)(C)O)n1)C(=O)c1cccnc1OCC(F)F` [Example 9, 2-(2,2-difluoroethoxy)-N-ethyl-N-{2-[6-(1-hydroxy-1-methylethyl)pyridin-2-yl]ethyl}pyridine-3-carboxamide], the IC50 was 95 nM at human orexin-2 receptor and above 10000 nM on hOX1R.

On to `CCN(CCc1cccc(C(C)(C)O)n1)C(=O)c1ccccc1-c1ncccn1` [Example 32, N-Ethyl-N-(2-(6-(2-hydroxypropan-2-yl)pyridin-2-yl)ethyl)-2-(pyrimidin-2-yl)benzamide], for which the concentration for half-maximal inhibition (IC50) was 16 nM on human orexin-2 receptor and 7360 nM on hOX1R.

`CCN(CCc1nccc(C(C)O)n1)C(=O)c1ccccc1-n1nccn1` (centres unmarked) [Example 43, N-Ethyl-N-(2-(4-(1-hydroxyethyl)pyrimidin-2-yl)ethyl)-2-(2H-1,2,3-triazol-2-yl)benzamide]: the IC50 was 165 nM on human orexin-2 receptor and above 10000 nM at hOX1R.

On to `CCN(CCc1nccc(C(C)(C)O)n1)C(=O)c1ccccc1-n1nccn1` [Example 44, N-Ethyl-N-(2-(4-(2-hydroxypropan-2-yl)pyrimidin-2-yl)ethyl)-2-(2H-1,2,3-triazol-2-yl)benzamide], for which the half-maximal inhibitory concentration (IC50) was 58 nM at human orexin-2 receptor and above 10000 nM at hOX1R.

Take `CCN(CCc1cccc(C(C)(C)O)n1)C(=O)c1ccccc1OC(F)F` [Example 7, 2-(difluoromethoxy)-N-ethyl-N-{2-[6-(1-hydroxy-1-methylethyl)pyridin-2-yl]ethyl}benzamide]: the IC50 was 196 nM at human orexin-2 receptor and above 10000 nM on hOX1R.

On to `CCN(CCc1cc(C(C)(C)O)ccn1)C(=O)c1ccccc1-n1nccn1` [Example 1, N-Ethyl-N-{2-[4-(1-hydroxy-1-methylethyl)pyridin-2-yl]ethyl}-2-(2H-1,2,3-triazol-2-yl)benzamide], for which the half-inhibitory concentration (IC50) at human orexin-2 receptor is 69 nM; on hOX1R it was above 10000 nM.

`CCN(CCc1cccc(C(C)(C)O)n1)C(=O)c1ncccc1-c1ccccc1` [Example 26, N-ethyl-N-(2-(6-(2-hydroxypropan-2-yl)pyridin-2-yl)ethyl)-3-phenylpicolinamide]: the 50% inhibitory concentration (IC50) was 452 nM on human orexin-2 receptor and above 10000 nM at hOX1R.

With `CCN(CCc1ccc(C(C)(C)O)cn1)C(=O)c1cccnc1OCC(F)F` [Example 64, 2-(2,2-difluoroethoxy)-N-ethyl-N-{2-[5-(1-hydroxy-1-methylethyl)pyridin-2-yl]ethyl}pyridine-3-carboxamide], the half-maximal inhibitory concentration (IC50) on human orexin-2 receptor was 337 nM; on hOX1R it was above 10000 nM.

For the molecule `CCN(CCc1cccc(C(C)(C)O)n1)C(=O)c1ccccc1C1CC1(F)F` (centres unmarked) [Example 31, 2-(2,2-difluorocyclopropyl)-N-ethyl-N-(2-(6-(2-hydroxypropan-2-yl)pyridin-2-yl)ethyl)benzamide], the 50% inhibitory concentration (IC50) was determined as 14 nM at human orexin-2 receptor and 9040 nM on hOX1R.

`CCN(CCc1ccc(C(C)(C)O)cn1)C(=O)c1ccc(OC)nc1C1CC1` [Example 59, 2-cyclopropyl-N-ethyl-N-{2-[5-(1-hydroxy-1-methylethyl)pyridin-2-yl]ethyl}-6-methoxypyridine-3-carboxamide]: the values for the concentration for half-maximal inhibition (IC50) at human orexin-2 receptor and at hOX1R were 55 nM and above 10000 nM, respectively.
